Data: article PMC11396318, “Lupeol-3-carbamate Derivatives: Synthesis and Biological Evaluation as Potential Antitumor Agents” (Molecules, 2024)
Like-named read-outs stand apart in the source and are kept apart here.

How the values were obtained:
[1] = system: human liver cancer cell line HepG2; experiment: MTT anti-proliferative assay, HepG2; type: cell-based; details: for IC50: read-out: IC50 (μM) HepG2
Text: (§1) The anti-proliferative activities of 3a–k against human lung cancer cell line (A549), human hepatoma cell line (HepG2), and human breast cancer cell line (MCF-7) were examined. With lupeol and cisplatin as positive controls, the MTT assay was used to evaluate the anti-proliferative activity of all of the synthesized compounds in vitro.
(§2) The MTT (Beyotime, Shanghai, China) colorimetric method was used to test the antitumor activity of the synthetic products. The test compound and the control compound were prepared into the liquid with a concentration of 1, 5, 10, 20, and 40 μmol/L, respectively. The tested tumor cells (A549, HepG2, MCF-7) (Chinese Academy of Sciences, Shanghai, China) were inoculated into 96 well plates with a density of 2 × 10^4 cells/mL, and 90 μL PBS was injected into each well. The 96 well plates were cultured overnight in an incubator, and each well was injected with the same concentration of 10 μL of the test compound. After 48 h, 10 μL of MTT solution was injected into each well. After culture for 4 h, the plates were turned upside down and 100 μL DMSO (Kermel, Tianjin, China) was added. The optical density (OD) values of the compound and the control product were determined at 490 nm wavelength with enzyme-labeled apparatus.

[2] = system: A549, HepG2, MCF-7; experiment: MTT anti-proliferative assay, stated for all three tumor cell lines together; type: cell-based, human; details: for IC50: Homo sapiens, 48 h, A549, HepG2 and MCF-7, 48 h, span or bound over the three lines, read-out: IC50 against all three tumor cell lines; for anti-proliferative activity compared with lupeol: three tested cell lines
Text: as §1, §2

[3] = system: human lung cancer cell line A549; experiment: MTT anti-proliferative assay, A549; type: cell-based; details: read-out: IC50 (μM) A549
Text: as §1, §2

[4] = system: human breast cancer cell line MCF-7; experiment: MTT anti-proliferative assay, MCF-7; type: cell-based; details: read-out: IC50 (μM) MCF-7
Text: as §1, §2

[5] = system: HepG2 cells; experiment: Annexin V/PI apoptosis by flow cytometry; type: cell-based, human; details: 48 h, control 3.03%
Procedure: HepG2 cells with logarithmic growth stage were selected and inoculated into a designated confocal six-well plate with 2 mL cell suspension per well (1 × 10^6 cells/mL) and cultured in a sterile incubator for 24 h. […] The cellular preparations were initially rinsed with phosphate-buffered saline (PBS), followed by enzymatic detachment using a 0.25% trypsin solution. Post-collection, the cells underwent centrifugation at 800 revolutions per minute (rpm) for a duration of 5 min to pelletize. The resulting cell pellet was subsequently re-suspended in 1 mL of culture medium designed for cell propagation. The 100 µL cell suspension was transferred into a flow detection tube, with 5 µL AnnexinV added, cultured at room temperature away from light for 15 min, and centrifuged at 800 revolutions per minute (rpm) for a period of 5 min, after which the supernatant containing the staining solution was aspirated. Then, 100 µL of binding buffer for re-suspension and 5 µL of PI dye were added and the solution was mixed well and incubated at low temperature, avoiding light for 15 min. The results were measured by flow cytometry.

[6] = system: HepG2 cells; experiment: AO/EB double staining, cell morphology; type: cell-based, human; details: HepG2, 48 h, 2, 4 and 8 μmol/L
Procedure: The apoptotic morphological alterations induced by compound 3k·CH3I in HepG2 cells were scrutinized after a 48-h treatment using the acridine orange/ethidium bromide (AO/EB) double staining method, as depicted in Figure 6.
In this study, human hepatoma HepG2 cells were treated with compound 3k·CH3I, and the tested cells were stained by the AO/EB double staining (KeyGEN BioTECH, Nanjing, China) method to observe the morphological changes of the cells. HepG2 cells of logarithmic growth stage were inoculated into confocal six-well plates, and a volume of 2 mL of the cell suspension, adjusted to a concentration of 1 × 10^6 cells per milliliter, was introduced into each well. The cells were cultured in an aseptic constant temperature incubator for 24 h, and 3k·CH3I solution with concentrations of 0, 2, 4, and 8 μmol/L was added successively, and the culture continued for 48 h. The cellular specimens were rinsed with phosphate-buffered saline (PBS) on two occasions, after which 500 µL of staining buffer was introduced to the preparation, followed by storage in a light-protected environment for subsequent analysis. AO (5 µL) and EB (5 µL) staining solutions were added to the six-well plates successively, mixed and incubated at 4 °C for 20 min under light protection, then PBS was added and observed under a fluorescence microscope.

[7] = system: HepG2 cells; experiment: Mitochondrial membrane potential depolarization, JC-1; type: cell-based, human; details: 48 h; for MMP depolarization: JC-1 flow cytometry, control 7.74%
Text: In order to explore the effect of compound 3k·CH3I on MMP, a JC-1 staining kit was used to detect the depolarization of the MMP of human hepatocellular carcinoma HepG2 cells treated with compound 3k·CH3I, as shown in Figure 8.
Flow cytometry was used to detect the intimal potential of HepG2 cells. […] It was concluded that the apoptosis of HepG2 cells was induced by compound 3k·CH3I and was associated with the mitochondrial-mediated endogenous pathway.
HepG2 cells with logarithmic growth stage were selected and inoculated into a designated confocal six-well plate with 2 mL cell suspension per well (1 × 10^6 cells/mL) and cultured in a sterile incubator for 24 h. The cells were treated with different concentrations of 3k·CH3I (0, 2, 4, 8 μmol/L) and continued to be cultured for 48 h. PBS cleans the cells, 0.25% trypsin digests the cells, and collects the cells. After the drug action time was over, 1 mL of pre-configured JC-1 staining solution was added and incubated for 30 min. After JC-1 incubation, the cells were observed by fluorescence microscope, the supernatant was separated, and the PBS cell suspension was taken and the experimental results were determined by flow cytometry.

[8] = system: HepG2 cells; experiment: Intracellular ROS, DCFH-DA, flow cytometry; type: cell-based, human; details: HepG2, 2, 4 and 8 μmol/L, 48 h, compared with the control group
Procedure: Flow cytometry was additionally used to determine the effect of compound 3k·CH3I on ROS levels in HepG2 cells.
HepG2 cells were inoculated into a six-well plate with 2 mL cell suspension per well at a concentration of 1 × 10^6 cells/mL overnight in an incubation chamber maintained at 37 °C with a 5% CO2 atmosphere. The cells were treated with different concentrations of compound 3k·CH3I (0, 2, 4 and 8 μmol/L) and continued to be cultured for 48 h. The cells underwent a PBS rinse to cleanse them, subsequent digestion with a 0.25% trypsin solution to facilitate detachment, and subsequent centrifugation at 800 revolutions per minute (rpm) for 5 min to sediment the cells. The ensuing cell pellet was then re-suspended in 1 mL of nutrient-rich cell culture medium for further experimental procedures. Then, 5 μmol/L DCFH-DA solution was added to each well and they were incubated for 30 min away from light. After incubation, the cells were digested, the supernatant was centrifuged, and the PBS cell suspension was taken and placed in a flow cytometry to determine the experimental results.

[9] = system: PI3K/AKT/mTOR pathway in HepG2 cells; experiment: Western blotting of PI3K/AKT/mTOR-related proteins; type: cell-based, human; details: HepG2, 2, 4 and 8 μmol/L, 48 h, relative to control
Procedure: In order to better comprehend the effect of compound 3k·CH3I on the expression of proteins related to the mitochondrial apoptosis pathway, HepG2 cells were treated with 3k·CH3I at different concentrations (0, 2, 4, and 8 μmol/L), and Western blotting was used to determine the expression of related proteins, as shown in Figure 9.
HepG2 cells with logarithmic growth stage were selected to make a single-cell suspension and inoculated into a culture bottle with a cell density of 1 × 10^6 cells/mL. The cells were treated with different concentrations of compound 3k·CH3I (0, 2, 4 and 8 μmol/L) and cultured for 48 h. A mixture of 500 μL of phenylmethylsulfonyl fluoride (PMSF) and radio immunoprecipitation assay (RIPA) lysate was added to each well, and the protein content was determined using the bicinchoninic acid (BCA) assay and denatured at high temperature 30 min later. The protein samples were separated by polyacrylamide gel electrophoresis (SDS-PAGE) and transferred to a polyvinylidene fluoride (PVDF) membrane. The membrane was enclosed in 5% skim milk for 2 h, then specific antibodies of different proteins were added, incubated at 4 °C overnight, and secondary antibodies were added for 2 h. Finally, the gel imager was used for detection. […] The gray-scale of the bands was analyzed by gel imaging image analysis software and the relative protein content was calculated.

[10] = Homo sapiens, HepG2, MTT assay, 48 h of treatment, three independent experiments
[11] = Homo sapiens, A549, MTT assay, 48 h of treatment, three independent experiments
[12] = Homo sapiens, MCF7, MTT assay, 48 h of treatment, three independent experiments
[13] = MTT assay, 48 h of treatment, three independent experiments

SMILES | IC50 [1, 10] [µM] | IC50 [3, 11] [µM] | IC50 [4, 12] [µM] | anti-proliferative activity compared with lupeol [2] | other results
C=C(C)[C@@H]1CC[C@]2(C)CC[C@]3(C)C(CCC4[C@@]5(C)CC[C@H](OC(=O)N6CCNCC6)C(C)(C)C5CC[C@]43C)C12 (stereo partly shown) [Compound 3h, Lupeol-3-(piperazine-1-carboxylate)] | 11.2 ± 1.45 | 12 ± 1.47 | 9.78 ± 1.2 |  | IC50 [2]: < 20 µM
C=C(C)[C@@H]1CC[C@]2(C)CC[C@]3(C)C(CCC4[C@@]5(C)CC[C@H](OC(=O)N6CCCC6)C(C)(C)C5CC[C@]43C)C12 (stereo partly shown) [Compound 3d, Lupeol-3-(pyrrolidine-1-carboxylate)] | 17.7 ± 1.35 | 11.3 ± 1.14 | 12.4 ± 1.55 |  | 
C=C(C)[C@@H]1CC[C@]2(C)CC[C@]3(C)C(CCC4[C@@]5(C)CC[C@H](OC(=O)N(CC)CC)C(C)(C)C5CC[C@]43C)C12 (stereo partly shown) [Compound 3b, Lupeol-3-(diethyl) Carbamate] |  |  |  |  | IC50 ([1]; Homo sapiens, HepG2, 48 h): 13.8 ± 1.23 µM; IC50 ([3]; Homo sapiens, A549, 48 h): 14 ± 1.25 µM; IC50 ([4]; Homo sapiens, MCF7, 48 h): 12.7 ± 1.43 µM
C=C(C)[C@@H]1CC[C@]2(C)CC[C@]3(C)C(CCC4[C@@]5(C)CC[C@H](OC(=O)N6CCOCC6)C(C)(C)C5CC[C@]43C)C12 (stereo partly shown) [Compound 3f, Lupeol-3-(morpholine-1-carboxylate)] | 10.8 ± 1.52 | 6.76 ± 0.96 | 11.3 ± 1.21 |  | 
C=C(C)C1CCC2(C)CCC3(C)C(CCC4C5(C)CCC(OC(=O)N6CCN(c7ccncc7)CC6)C(C)(C)C5CCC43C)C12 (stereo not shown) [Compound 3k, Lupeol-3-((4-(pyridin-4-yl)piperazine)-1-carboxylate)] | 14 ± 1.65 | 12.1 ± 1.35 | 19.9 ± 1.82 | more potent than that of lupeol | IC50 [2]: < 20 µM
C=C(C)[C@@H]1CC[C@]2(C)CC[C@]3(C)C(CCC4[C@@]5(C)CC[C@H](OC(=O)N6CCCCC6)C(C)(C)C5CC[C@]43C)C12 (stereo partly shown) [Compound 3e, Lupeol-3-(piperidine-1-carboxylate)] | 6.91 ± 1.6 | 13.2 ± 1.56 | 14 ± 1.58 | more potent than that of lupeol | IC50 [2]: < 20 µM
C=C(C)[C@@H]1CC[C@]2(C)CC[C@]3(C)C(CCC4[C@@]5(C)CC[C@H](OC(=O)N(C)C)C(C)(C)C5CC[C@]43C)C12 (stereo partly shown) [Compound 3a, Lupeol-3-(dimethyl) Carbamate] |  |  |  |  | IC50 ([1]; Homo sapiens, HepG2, 48 h): 11.1 ± 1.45 µM; IC50 ([3]; Homo sapiens, A549, 48 h): 14 ± 1.03 µM; IC50 ([4]; Homo sapiens, MCF7, 48 h): 10.2 ± 1.24 µM
C=C(C)C1CCC2(C)CCC3(C)C(CCC4C5(C)CCC(OC(=O)N6CCN(c7cc[n+](C)cc7)CC6)C(C)(C)C5CCC43C)C12 (stereo not shown) [Compound 3k·CH3I] | 3.13 |  |  | more potent than that of lupeol | total percentage of apoptotic and necrotic cells ([5]; HepG2, 4 μmol/L): 45.10%; total percentage of apoptotic and necrotic cells ([5]; HepG2, 8 μmol/L): 55.6%; activity on HepG2 relative to lupeol ([1]; HepG2, ratio of IC50): about 10 times; apoptotic morphological alterations (AO/EB staining) [6]: bright red fluorescence due to the chromatin concentration and nuclear fragmentation; MMP depolarization ([7]; HepG2, 2 μmol/L): 17.2%; MMP depolarization ([7]; HepG2, 4 μmol/L): 27.3%; MMP depolarization ([7]; HepG2, 8 μmol/L): 48.9%; JC-1 fluorescence (microscopy) ([7]; HepG2, different concentrations, compared with the control group): the red fluorescence gradually weakened until it eventually disappeared, and the green fluorescence gradually strengthened; ROS levels [8]: increased significantly; expression of P-AKT, P-PI3K and P-mTOR [9]: downregulation; expression of basal forms of AKT, PI3K and mTOR [9]: dose-dependent upregulation
C=C(C)[C@@H]1CC[C@]2(C)CC[C@]3(C)[C@H](CC[C@@H]4[C@@]5(C)CC[C@H](O)C(C)(C)[C@@H]5CC[C@]43C)[C@@H]12 [Lupeol] | 43.6 ± 1.37 | 35.9 ± 1.58 | 62 ± 1.79 |  | 
C=C(C)[C@@H]1CC[C@]2(C)CC[C@]3(C)C(CCC4[C@@]5(C)CC[C@H](OC(=O)N(CCC)CCC)C(C)(C)C5CC[C@]43C)C12 (stereo partly shown) [Compound 3c, Lupeol-3-(dipropyl) Carbamate] | 5.39 ± 0.77 | 15.5 ± 1.2 | 15.3 ± 1.11 | more potent than that of lupeol | 
C=C(C)[C@@H]1CC[C@]2(C)CC[C@]3(C)C(CCC4[C@@]5(C)CC[C@H](OC(=O)N6CCN(C)CC6)C(C)(C)C5CC[C@]43C)C12 (stereo partly shown) [Compound 3i, Lupeol-3-((4-methylpiperazine)-1-carboxylate)] | 9.43 ± 1.21 | 5.74 ± 0.83 | 8.2 ± 1.46 |  | 
N.N.[Cl][Pt][Cl] [Cisplatin, reference compound] |  |  |  |  | IC50 [1, 13]: 4.05 ± 0.45 µM; IC50 [3, 13]: 4.65 ± 0.52 µM; IC50 [4, 13]: 5.27 ± 0.68 µM
C=C(C)[C@@H]1CC[C@]2(C)CC[C@]3(C)C(CCC4[C@@]5(C)CC[C@H](OC(=O)N6CCSCC6)C(C)(C)C5CC[C@]43C)C12 (stereo partly shown) [Compound 3g, Lupeol-3-(thiomorpholine-1-carboxylate)] | 10.1 ± 1.78 | 8.19 ± 1.02 | 7.77 ± 1.09 |  | 
